Measured values as given in US20220242879A1, “FUSED HETEROCYCLE DERIVATIVES” (Janssen Sciences Ireland Unlimited Company, priority 2019, published 2022).
Like-named read-outs stand apart in the source and are kept apart here.

Assays:
[1] = Cytotoxicity, ATPlite Luminescence Assay; assay type: cell-based, human; details: human, mean value, cells incubated for 3 days, viability by ATPlite, read-out: TOX-HepC2.117 CC50
Description: Cytotoxicity of the compounds was tested using HepG2 or HepG2.117 cells, incubated for 3 days in the presence of compounds. The viability of the cells was assessed using the PERKIN ELMER ATPlite Luminescence Assay System.”

HBV = test: Anti-HBV activity, HepG2.117 cell line, intracellular HBV DNA by real-time PCR; assay type: cell-based, Hepatitis B virus; details: Hepatitis B virus, read-out: HBV-AVE-HepG2.117 EC50
Description: The anti HBV activity was measured using the HepG2.117 cell line, a stable, inducibly HBV producing cell line, which replicates HBV in the absence of doxicycline (Tet-off system). The HepG2 cell line is available from ATCC® under number HB-8065. Transfection of the HepG2 cell line can be as described in Sun and Nassal 2006 Journal of Hepatology 45 (2006) 636-645 “Stable HepG2- and Huh7-based human hepatoma cell lines for efficient regulated expression of infectious hepatitis B virus”.
For the antiviral assay, HBV replication was induced, followed by a treatment with serially diluted compound in 96-well plates. After 3 days of treatment, the antiviral activity was determined by, quantification of intracellular HBV DNA using real-time PCR and an HBV specific primer set and probe.

[2] = 72 h, mean value, HepG2.117 cells, 3 days of treatment, intracellular HBV DNA

## CN(C)C(=O)C1Cc2conc2-c2c3c(nn2C1)CCN(C(=O)c1ccc(Cl)c(Cl)c1)C3 (stereo not drawn) [Compound 36, 11-(3,4-Dichlorobenzoyl)-N,N-dimethyl-5,6,9,10,11,12-hexahydro-4H-[1,2]oxazolo[3,4-c]pyrido[4′,3′:3,4]pyrazolo[1,5-a]azepine-5-carboxamide]
[1]; HepG2.117 cells
  CC50 at 3 days: > 50 µM
HBV; [2]
  EC50: 686 nM

## O=C(c1ccc(Cl)c(Cl)c1)N1CCc2nn3c(c2C1)-c1ncoc1CCC3 [Compound 40, (3,4-Dichlorophenyl)(4,5,6,9,10,12-hexahydro-11H-[1,3]oxazolo[4,5-c]pyrido-[4′,3′:3,4]pyrazolo[1,5-a]azepin-11-yl)methanone]
[1]; HepG2.117 cells
  CC50 at 3 days: > 50 µM
HBV; [2]
  EC50: 499 nM

## O=C(c1ccc(Cl)c(Cl)c1)N1CCc2nn3c(c2C1)-c1n[nH]cc1CC(CO)C3 (stereo not drawn) [Compound 43, (3,4-Dichlorophenyl)[5-(hydroxymethyl)-2,5,6,9,10,12-hexahydropyrazolo[3,4-c]pyrido-[4′,3′:3,4]pyrazolo[1,5-a]azepin-11(41)-yl]methanone]
[1]; HepG2.117 cells
  CC50 at 3 days: > 50 µM
HBV; [2]
  EC50: 2320 nM

## C[C@@H]1Cc2nn3c(c2CN1C(=O)c1ccc(Cl)c(Cl)c1)-c1nocc1CCC3 [Compound 14, (3,4-dichlorophenyl)[(10R)-10-methyl-5,6,9,10-tetrahydro-4H-[1,2]oxazolo-[3,4-c]pyrido[4′,3′:3,4]pyrazolo[1,5-a]azepin-11(12H)-yl]methanone]
[1]; HepG2.117 cells
  CC50 at 3 days: 39.2 µM
HBV; [2]
  EC50: 213 nM

## Cn1cc2c(n1)-c1c3c(nn1CCC2)CCN(C(=O)c1ccc(Cl)c(Cl)c1)C3 [Compound 42, (3,4-Dichlorophenyl)(2-methyl-2,5,6,9,10,12-hexahydropyrazolo[3,4-c]pyrido[4′,3′:3,4]-pyrazolo[1,5-a]azepin-11(4H)-yl)methanone]
[1]; HepG2.117 cells
  CC50 at 3 days: > 50 µM
HBV; [2]
  EC50: > 48800 nM

## O=C(Nc1ccccc1)C1Cc2conc2-c2c3c(nn2C1)CCN(C(=O)c1ccc(Cl)c(Cl)c1)C3 (stereo not drawn) [Compound 37, 11-(3,4-Dichlorobenzoyl)-N-phenyl-5,6,9,10,11,12-hexahydro-4H-[1,2]oxazolo[3,4-c]-pyrido[4′,3′:3,4]pyrazolo[1,5-a]azepine-5-carboxamide]
[1]
  CC50 at 3 days: > 50 µM
HBV; HepG2.117, 72 h
  EC50: 343 nM

## CNC(=O)[C@H]1Cc2conc2-c2c3c(nn2C1)CCN(C(=O)c1ccc(Cl)c(Cl)c1)C3 (single isomer, unassigned) [Compound 31, (5*S)-11-(3,4-Dichlorobenzoyl)-N-methyl-5,6,9,10,11,12-hexahydro-4H-[1,2]oxazolo[3,4-c]pyrido[4′,3′:3,4]pyrazolo[1,5-a]azepine-5-carboxamide]
[1]; HepG2.117 cells
  CC50 at 3 days: > 50 µM
HBV; [2]
  EC50: 47 nM

## O=C(c1ccc(Cl)c(Cl)c1)N1CCc2nn3c(c2C1)-c1ncsc1CCC3 [Compound 46, (3,4-Dichlorophenyl)(4,5,6,9,10,12-hexahydro-11H-pyrido[4′,3′:3,4]pyrazolo[1,5-a][1,3]-thiazolo[4,5-c]azepin-11-yl)methanone]
[1]; HepG2.117 cells
  CC50 at 3 days: 27.1 µM
HBV; [2]
  EC50: 236 nM

## Cc1[nH]nc2c1CCn1nc3c(c1-2)CN(C(=O)c1ccc(Cl)c(Cl)c1)CC3 [Compound 7, (3,4-Dichlorophenyl)(3-methyl-2,4,5,8,9,11-hexahydro-10H-pyrazolo[3,4-c]pyrazolo-[1,5-a:4,3-c′]dipyridin-10-yl)methanone]
[1]; HepG2.117 cells
  CC50 at 3 days: > 50 µM
HBV; [2]
  EC50: 1290 nM

## O=C(NCCO)C1Cc2conc2-c2c3c(nn2C1)CCN(C(=O)c1ccc(Cl)c(Cl)c1)C3 (stereo not drawn) [Compound 34, 11-(3,4-Dichlorobenzoyl)-N-(2-hydroxyethyl)-5,6,9,10,11,12-hexahydro-4H-[1,2]oxazolo-[3,4-c]pyrido[4′,3′:3,4]pyrazolo[1,5-a]azepine-5-carboxamide]
[1]; HepG2.117 cells
  CC50 at 3 days: > 50 µM
HBV; [2]
  EC50: 358 nM

## O=C(c1ccc(Cl)c(Cl)c1)N1CCc2nn3c(c2C1)-c1oncc1CCC3 [Compound 39, (3,4-Dichlorophenyl)(4,5,6,9,10,12-hexahydro-11H-[1,2]oxazolo[5,4-c]pyrido[4′,3′:3,4]-pyrazolo[1,5-a]azepin-11-yl)methanone]
[1]; HepG2.117 cells
  CC50 at 3 days: 43.6 µM
HBV; [2]
  EC50: 1340 nM

## CNC(=O)[C@@H]1Cc2conc2-c2c3c(nn2C1)CCN(C(=O)c1ccc(Cl)c(Cl)c1)C3 (single isomer, unassigned) [Compound 30, (5′R)-11-(3,4-Dichlorobenzoyl)-N-methyl-5,6,9,10,11,12-hexahydro-4H-[1,2]oxazolo[3,4-c]-pyrido[4′,3′:3,4]pyrazolo[1,5-a]azepine-5-carboxamide]
[1]; HepG2.117 cells
  CC50 at 3 days: > 50 µM
HBV; [2]
  EC50: 181 nM

## Cc1nc2c(s1)CCn1nc3c(c1-2)CN(C(=O)c1ccc(Cl)c(Cl)c1)CC3 [Compound 10, (3,4-Dichlorophenyl)(2-methyl-4,8,9,11-tetrahydro[1,3]thiazolo[4,5-c]pyrazolo[1,5-a:4,3-c′]-dipyridin-10(5H)-yl)methanone]
[1]; HepG2.117 cells
  CC50 at 3 days: > 10 µM
HBV; [2]
  EC50: 8060 nM

## Cc1onc2c1CCn1nc3c(c1-2)CN(C(=O)c1ccc(Cl)c(Cl)c1)CC3 [Compound 2]
[1]; HepG2.117 cells
  CC50 at 3 days: 41.9 µM
HBV; [2]
  EC50: 921 nM

## COC1Cc2conc2-c2c3c(nn2C1)CCN(C(=O)c1ccc(Cl)c(Cl)c1)C3 (stereo not drawn) [Compound 20, (3,4-Dichlorophenyl)(5-methoxy-5,6,9,10-tetrahydro-4H-isoxazolo[3,4-c]pyrido[4′,3′:3,4]-pyrazolo[1,5-a]azepin-11(12H)-yl)methanone]
[1]; HepG2.117 cells
  CC50 at 3 days: > 50 µM
HBV; [2]
  EC50: 300 nM

## O=C(c1ccc(Cl)c(Cl)c1)N1CCc2nn3c(c2C1)-c1n[nH]cc1CCC3 [Compound 41, (3,4-Dichlorophenyl)(2,5,6,9,10,12-hexahydropyrazolo[3,4-c]pyrido[4′,3′,3,4]pyrazolo[1,5-a]-azepin-11(4H)-yl)methanone]
[1]; HepG2.117 cells
  CC50 at 3 days: 25.6 µM
HBV; [2]
  EC50: 749 nM

## Cn1cnc2c1CCCn1nc3c(c1-2)CN(C(=O)c1ccc(Cl)c(Cl)c1)CC3 [Compound 45, (3,4-Dichlorophenyl)(3-methyl-4,5,6,9,10,12-hexahydroimidazo[4,5-c]pyrido[4′,3′:3,4]pyrazolo-[1,5-a]azepin-11(3H)-yl)methanone]
[1]; HepG2.117 cells
  CC50 at 3 days: > 50 µM
HBV; [2]
  EC50: 4970 nM

## CNC(=O)[C@H]1Cc2conc2-c2c3c(nn2C1)C[C@@H](C)N(C(=O)c1ccc(Cl)c(Cl)c1)C3 (single isomer, unassigned) [Compound 48]
[1]; HepG2.117 cells
  CC50 at 3 days: > 50 µM
HBV; [2]
  EC50: 19 nM

## CNC(=O)C1(O)Cc2conc2-c2c3c(nn2C1)CCN(C(=O)c1ccc(Cl)c(Cl)c1)C3 (stereo not drawn) [Compound 22, 11-(3,4-Dichlorobenzoyl)-S-hydroxy-N-methyl-5,6,9,10,11,12-hexahydro-4H-[1,2]oxazolo-[3,4-c]pyrido[4′,3′:3,4]pyrazolo[1,5-a]azepine-5-carboxamide]
[1]; HepG2.117 cells
  CC50 at 3 days: > 50 µM
HBV; [2]
  EC50: 130 nM

## C[C@@H]1Cc2nn3c(c2CN1C(=O)c1ccc(Cl)c(Cl)c1)-c1nocc1CC3 [Compound 5, (3,4-Dichlorophenyl)[(9R)-9-methyl-4,5,8,9-tetrahydro[1,2]oxazolo[3,4-c]-pyrazolo[1,5-a:4,3-c′]dipyridin-10(11H)-yl]methanone]
[1]; HepG2.117 cells
  CC50 at 3 days: > 50 µM
HBV; [2]
  EC50: 279 nM

## O=C(c1ccc(Cl)c(Cl)c1)N1CCc2nn3c(c2C1)-c1n[nH]cc1CC3 [Compound 6, (3,4-Dichlorophenyl)(2,4,5,8,9,11-hexahydro-10H-pyrazolo[3,4-c]pyrazolo[1,5-a:4,3-c′]-dipyridin-10-yl)methanone]
[1]; HepG2.117 cells
  CC50 at 3 days: > 50 µM
HBV; [2]
  EC50: 208 nM
